We go through 3 molecules from the NIST ThermoML archive (doi:10.1021/je700384e).

Numbers after ± are expanded uncertainties.

For the data set the following is noted: Crystal; DTA.
On to `O=C=O` [carbon dioxide], for which the Triple point temperature came to 216.56 ± 0.5 K.
Then `[N-]=[N+]=O` [nitrous oxide], with 181.99 ± 0.5 K.
Then `CC(F)F` [1,1-difluoroethane], with 154.3 ± 0.5 K.
